The values below come from paper PMC6792352, “Limited Chemical Structural Diversity Found to Modulate Thyroid Hormone Receptor in the Tox21 Chemical Library” (Environmental Health Perspectives, 2019).

Where a name gives a salt, the structure may show the parent alone.

A short description of this data set: in vitro. As to conditions: rat, gh3-tre-luc cells.

Broadly, the CC50 is the concentration that lowers cell viability or growth by half. `S=C(S)N1CCNCC1` [1-Piperazinecarbodithioic acid] yielded a CC50 at 24 h (AC50 (uM) modified / 1000, Tox21_110001=Tox21_112759, viability, 1 nM T3 present, 24 h) above 50 µM.
Where the note is “AC50 (uM) modified / 1000”, `CC1(C)C(=O)NC(=O)NC1=O` [5,5-Dimethylbarbituric acid] returned a CC50 at 24 h above 90 µM.
Still for that read-out and setting: then `COc1ccc(C(=O)c2ccc(O)cc2)c(OC)c1` [(2,4-dimethoxyphenyl)(4-hydroxyphenyl)methanone], with above 90 µM; and `[H]/N=C(\N/C(=N/[H])Nc1ccc(Cl)cc1)NC(C)C` [Proguanil hydrochloride], with above 20 µM.
On the same count and under the same terms, the figure for `O=C(c1ccccc1O)c1ccccc1O` [2,2'-Dihydroxybenzophenone] is above 90 µM; for `CC1=CCC(=C(C)C)CC1` [Terpinolene] it is above 90 µM.
The compound `O=C(c1ccccc1)c1ccccc1O` [2-Hydroxybenzophenone] registered a CC50 at 24 h (AC50 (uM) modified / 1000) above 90 µM.
On the same count and under the same terms, then `O=Cc1ccc(CO)o1` [5-(Hydroxymethyl)-2-furfural], with above 90 µM.
With `CN[C@@H]1CCc2[nH]c3ccc(C(N)=O)cc3c2C1` [Frovatriptan Succinate monohydrate], the CC50 at 24 h (AC50 (uM) modified / 1000) was above 50 µM.
The same measure, in the same setting: the figure for `N#Cc1cccnc1` [3-Pyridinecarbonitrile] is above 90 µM; for `Clc1ccc(C(Cl)(Cl)Cl)cc1` [4-Chlorobenzotrichloride] it is above 90 µM.
Still for that read-out and setting: then `Cc1cc(C(F)(C(F)(F)F)C(F)(F)F)ccc1NC(=O)c1cccc(I)c1C(=O)NC(C)(C)CS(C)(=O)=O` [Flubendiamide], with above 70 µM.
Still for that read-out and setting: then `CO/N=C1\CN(c2nc3c(cc2F)c(=O)c(C(=O)O)cn3C2CC2)CC1CN` (stereo not shown) [Gemifloxacin mesylate], with above 50 µM; and `O=C(OCC1CCC2OC2C1)C1CCC2OC2C1` (stereo not shown) [ECC], with above 100 µM; and `O=C1NC(=O)c2cc([N+](=O)[O-])ccc21` [4-Nitrophthalimide], with above 90 µM.
`ON(Cc1ccccc1)Cc1ccccc1` [N-Benzyl-N-hydroxy-1-phenylmethanamine]: for the setting “AC50 (uM) modified / 1000”, the CC50 at 24 h is above 90 µM.
In the case of `CCCCCCc1ccc(-c2ccc(C#N)cc2)cc1` [4-Hexyl-4'-cyanobiphenyl], the half-maximal cytotoxic concentration (CC50) at 24 h (AC50 (uM) modified / 1000) is above 90 µM.
The same measure, in the same setting: the figure for `Cc1c[nH]c2ccccc12` [3-Methylindole] is above 50 µM.
As for `CC[C@@H](C)[C@H](N)C(=O)O` [L-Alloisoleucine], the 50% cytotoxic concentration (CC50) at 24 h (AC50 (uM) modified / 1000) is above 50 µM.
On the same count and under the same terms, then `COCCOC` [Ethylene glycol dimethyl ether], with above 90 µM; and `Cc1cc(F)ccc1-c1cc(N2CC[C@@H](O)[C@H]2CO)ncc1N(C)C(=O)C(C)(C)c1cc(C(F)(F)F)cc(C(F)(F)F)c1` [PharmaGSID_48513], with 12.5 µM; and `COC(=O)c1ccc(I)cc1S(=O)(=O)NC(=O)Nc1nc(C)nc(OC)n1` [Iodosulfuron-methyl-sodium], with above 90 µM.
For the compound `Cc1cc(OI)c(C(C)C)cc1-c1cc(C(C)C)c(OI)cc1C` [Thymol iodide], the cytotoxic concentration (CC50) at 24 h (AC50 (uM) modified / 1000) was above 50 µM.
Same read-out and setting: then `C1OCOCO1` [1,3,5-Trioxane], with above 90 µM; and `NC(=O)c1ccc(N)cc1` [4-Aminobenzamide], with above 90 µM.
Still for that read-out and setting: the figure for `CC(Cl)C(=O)O` (stereo not shown) [2-Chloropropanoic acid] is above 100 µM; for `O=CCc1ccccc1` [Phenylacetaldehyde] it is above 90 µM; for `CCCc1ccc(C(=O)O)cc1` [4-Propylbenzoic acid] it is above 50 µM.
In turn, `N=C1N=C(N)c2ccccc21` [1H-Isoindole-1,3(2H)-diimine] registered a CC50 at 24 h (AC50 (uM) modified / 1000) of 35.8 µM. This counts as double-digit micromolar.
In turn, `CCCCC(O)c1ccccc1` (stereo not shown) [Fenipentol] showed a 50% cytotoxic concentration (CC50) at 24 h (AC50 (uM) modified / 1000) above 50 µM.
Turning to `CCOC(=O)CC(C(C)=O)C(C)=O` [Ethyl 3-acetyl-4-oxopentanoate], the CC50 at 24 h (AC50 (uM) modified / 1000) is above 90 µM.
Consider `C=C(C)C(=O)OCCCCOC(=O)C(=C)C` [Butane-1,4-diyl bis(2-methylprop-2-enoate)], for which the CC50 at 24 h (AC50 (uM) modified / 1000) was above 90 µM.
`O=S(=O)(O)c1ccc(Nc2nc(Nc3ccc(/C=C/c4ccc(Nc5nc(Nc6ccc(S(=O)(=O)O)cc6)nc(N(CCO)CCO)n5)cc4S(=O)(=O)O)c(S(=O)(=O)O)c3)nc(N(CCO)CCO)n2)cc1` [C.I. Fluorescent Brightener 220]: for the setting “AC50 (uM) modified / 1000”, the CC50 at 24 h was above 60 µM.
The same measure, in the same setting: then `CCCC(=O)OC/C=C(\C)CCC=C(C)C` [Geranyl butyrate], with above 90 µM.
On the same count and under the same terms, then `O=C(O)c1cc(Cl)cc([N+](=O)[O-])c1Cl` [2,5-Dichloro-3-nitrobenzoic acid], with above 90 µM; and `COc1cc2c(cc1OC)[C@H]1CC(=O)[C@H](CC(C)C)CN1CC2` (racemic) [Tetrabenazine], with above 50 µM; and `CCCCCCC[N+](CC)(CC)CCCCc1ccc(Cl)cc1` [Clofilium tosylate], with above 20 µM.
The same measure, in the same setting: the figure for `Nc1c(S(=O)(=O)O)cc(Br)c2c1C(=O)c1ccccc1C2=O` [Bromamine acid sodium salt] is 38.3 µM; for `NCCO/C=C/[C@H](N)C(=O)O` [Aviglycine hydrochloride] it is above 50 µM.
In the case of `C[N+](C)(C)CC(O)CC(=O)[O-]` (stereo not shown) [Carnitine hydrochloride], under “AC50 (uM) modified / 1000”, the 50% cytotoxic concentration (CC50) at 24 h is above 50 µM.
The same measure, in the same setting: the figure for `CCCCC(CC)COC(=O)c1ccccc1C(=O)O` (stereo not shown) [MEHP] is above 90 µM.
Same read-out and setting: the figure for `CC(C)[N+](C)(CCC(C(N)=O)(c1ccccc1)c1ccccc1)C(C)C` [Isopropamide] is above 20 µM; for `Cc1cc(C)c(C)cc1C` [1,2,4,5-Tetramethylbenzene] it is above 90 µM.
On the same count and under the same terms, then `C=CC(=O)OCC` [Ethyl acrylate], with above 90 µM; and `Cc1ccc2ccc3cccc4ccc1c2c34` [1-Methylpyrene], with above 90 µM; and `Cc1ccc(S(=O)(=O)O)c(C)c1` [Sodium m-xylene-4-sulfonate], with above 90 µM.
As for `O=C(NC(=O)c1cc(F)c(F)cc1Cl)Nc1cc(F)ccc1N1CCC(C(=O)O)CC1` [AVE2865], the CC50 at 24 h (AC50 (uM) modified / 1000, Tox21_110001=Tox21_300253, viability, 1 nM T3 present, 24 h) was above 50 µM.
`CCNC(=O)[C@@H](C)OC(=O)Nc1ccccc1` [Carbetamide] showed a cytotoxic concentration (CC50) at 24 h (AC50 (uM) modified / 1000) above 90 µM.
The same measure, in the same setting: then `COC(=O)CCC[N+](C)(C)C` [Carpronium chloride], with above 50 µM.
Same read-out and setting: the figure for `CN1C(=O)[C@@H](NC(=O)c2cc3ccccc3[nH]2)N=C(c2ccccc2)c2ccccc21` [Devazepide] is above 50 µM; for `CC1CC(C)C(=O)C1=O` (stereo not shown) [3,5-Dimethyl-1,2-cyclopentanedione] it is above 90 µM; for `C=C(C)C(=O)OCCOC(=O)C(=C)C` [Ethylene glycol dimethacrylate] it is above 90 µM.
Same read-out and setting: the figure for `CCCCCCCC` [Octane] is above 90 µM.
Where the note is “AC50 (uM) modified / 1000”, `CC(CNC(=O)c1cccnc1)NC(=O)c1cccnc1` (stereo not shown) [Nicaraven] showed a 50% cytotoxic concentration (CC50) at 24 h above 50 µM.
`Cc1cc2c(cc1S(N)(=O)=O)S(=O)(=O)CCC2` [Meticrane] yielded a CC50 at 24 h (AC50 (uM) modified / 1000) above 20 µM.
Compound `O=C1Nc2ccccc2C1=O` [Isatin] registered a CC50 at 24 h (AC50 (uM) modified / 1000) above 90 µM.
The same measure, in the same setting: the figure for `CCOC(=O)N(C)N=O` [N-Nitroso-N-methylurethane] is above 90 µM.
Turning to `O=C(C(=O)c1ccco1)c1ccco1` [alpha-Furil], the CC50 at 24 h (AC50 (uM) modified / 1000) is above 90 µM.
Still for that read-out and setting: then `O=[N+]([O-])c1ccc(O)cc1C(F)(F)F` [3-Trifluoromethyl-4-nitrophenol], with 41.4 µM; and `CC(=O)OCCOCCOCCOC(C)=O` [Triethylene glycol diacetate], with above 90 µM; and `N#CCC(=O)O` [Cyanoacetic acid], with above 90 µM.
Under “AC50 (uM) modified / 1000”, `CC(=O)Oc1cccc2c1C(=O)c1c(OC(C)=O)cc(C(=O)O)cc1C2=O` [Diacerein] came in with a CC50 at 24 h above 50 µM.
Still for that read-out and setting: then `CC(C)CCOC(=O)c1ccc(N(C)C)cc1` [Padimate], with above 50 µM; and `CCC(C)Nc1c([N+](=O)[O-])cc(C(C)(C)C)cc1[N+](=O)[O-]` (stereo not shown) [Butralin], with 68.1 µM.
Under “AC50 (uM) modified / 1000, Tox21_110001=Tox21_301424, viability, 1 nM T3 present, 24 h”, `CNC(=O)Oc1cc(C)cc(C(C)C)c1` [Promecarb] yielded a CC50 at 24 h above 90 µM.
Regarding `CC(=O)O[C@@H]1C(=O)O[C@H]2[C@@H]1OC(=O)[C@@H]2OC(C)=O` [Aceglatone], the CC50 at 24 h (AC50 (uM) modified / 1000) was above 50 µM.
On the same count and under the same terms, the figure for `Cc1cc(NS(=O)(=O)c2ccc(N)cc2)nc(C)n1` [Sulfisomidine] is above 50 µM.
The compound `COP(=S)(NC(C)C)Oc1ccc(C)cc1[N+](=O)[O-]` (stereo not shown) [Amiprofos-methyl] showed a CC50 at 24 h (AC50 (uM) modified / 1000, Tox21_110001=Tox21_301206, viability, 1 nM T3 present, 24 h) above 90 µM.
As to `OCCOc1ccccc1` [2-Phenoxyethanol], the cytotoxic concentration (CC50) at 24 h (AC50 (uM) modified / 1000) was above 90 µM.
Still for that read-out and setting: the figure for `O=CNC(N1CCN(C(NC=O)C(Cl)(Cl)Cl)CC1)C(Cl)(Cl)Cl` (stereo not shown) [Triforine] is above 90 µM; for `CC(C)OC(=O)C(C)(C)Oc1ccc(C(=O)c2ccc(Cl)cc2)cc1` [Fenofibrate] it is 78.6 µM; for `CCCC(O)C(CC)CO` (stereo not shown) [2-Ethyl-1,3-hexanediol] it is above 90 µM.
For `CCOC(=O)COc1ccc(Cl)cc1Cl` [2,4-D-ethyl ester], the CC50 at 24 h (AC50 (uM) modified / 1000, Tox21_110001=Tox21_302216, viability, 1 nM T3 present, 24 h) is above 90 µM.
`ClC(Cl)(Cl)Cl` [Carbon tetrachloride]: where the note is “AC50 (uM) modified / 1000”, the CC50 at 24 h was above 90 µM.
The same measure, in the same setting: the figure for `Cc1cccc(Nc2ccncc2S(=O)(=O)NC(=O)NC(C)C)c1` [Torsemide] is above 20 µM; for `Nc1ccc(S(=O)(=O)Nc2ccccn2)cc1` [Sulfapyridine] it is above 20 µM.
Same read-out and setting: then `O=S(=O)(O)c1cc(O)c(O)c(S(=O)(=O)O)c1` [Tiron], with above 90 µM; and `COC(=O)c1cc(Cl)ccc1[N+](=O)[O-]` [Methyl 5-chloro-2-nitrobenzoate], with above 90 µM; and `CCC[C@@H]1C[C@@H](C(=O)N[C@@H]([C@H]2O[C@H](SC)[C@H](O)[C@@H](O)[C@H]2O)[C@@H](C)O)N(C)C1` [Lincomycin hydrochloride], with above 50 µM.
